# Reference: US20160312311A1, “MARKERS FOR ISOCITRATE DEHYDROGENASE INHIBITORS” (NOVARTIS AG, priority 2013, published 2016)
# Legend:
# Assay type in all cases: cell-based
# HCT116 IDH1/2 WT cells = test: H3K9me2 Western blot after exogenous 2-HG treatment; conditions: 10 mM 2-HG or 1 mM Cell-Permeable 2-HG for about 30 days
# Description: In order to evaluate the effect of IDH1 mutations, IDH2 mutations and 2-HG on H3K9me2, HCT116 colorectal cells that were engineered to endogenously express various clinically relevant mutations in IDH1 or IDH2 (Horizon Discovery, Cambridge, UK) were assayed for changes in H3K9me2 levels. […] HCT116 IDH1/2 WT cells were also exogenously treated with 10 mM 2-HG or 1 mM Cell-Permeable 2-HG for about 30 days. All cells were grown in McCoy's 5A Media (Life Technologies, Carlsbad, Calif.) containing 10% Fetal Bovine Serum (Hyclone, Logan, Utah). At least 10^6 cells per line were harvested and subject to a Histone Acid Extraction® Protocol (Abcam, Cambridge, Mass.). Cells in culture were rinsed with PBS and detached using 0.25% trypsin. Trypsin was deactivated using fresh media and the sample was spun down at 1000 rpm for 5 minutes. Media was aspirated and samples were kept at −80° C. until ready for processing.
# Cells were washed twice in ice-cold PBS supplemented with 5 mM sodium butyrate (Sigma-Aldrich, St. Louis Mo.). Cells were then resuspended in Triton Extraction Buffer (TEB: PBS containing 0.5% TritonX 100(v/v), 2 mM phenylmethylsulfonyl fluoride (PMSF), 0.02% (w/v) sodium azide) also supplemented with 5 mM sodium butyrate at density of 10^7 cells per mL. […] Histone extracts were subsequently quantified using a detergent compatible (“DC”) protein assay kit (BioRad, Hercules, Calif.). […]
# [1] = tested on: HCT116 cells (wild type for IDH1 and IDH2); test: H3K9me2 Western blot in IDH1 and IDH2 wild type cell line; conditions: increasing concentrations, 3-6 days
# Description: In order to examine the role of H3K9me2 levels as marker, cells that were wild type for IDH1 and IDH2, for example HCT116 cells, were treated with a compound that inhibits IDH1 mutant activity (compound 162). HCT116 colon cells cancer cells (ATCC CCL-247) were cultured in McCoy's 5A (Life Technologies, Carlsbad, Calif.) supplemented with 10% fetal bovine serum (Hyclone, Logan Utah). These cells were treated for 3-6 days with increasing concentrations of compound 162 or DMSO vehicle as control.
# Histone extracts were prepared with NuPAGE® 4×LDS Sample Buffer (Life Technologies, Carlsbad, Calif.) and heated to 70° C. for 10 minutes. Samples were run on NuPage® Novex 4-12% Bis-Tris gel (Life Technologies, Carlsbad, Calif.) using MES buffer (Life Technologies, Carlsbad, Calif.). The gel was then transferred onto nitrocellulose membrane using the iBlot system (Life Technologies, Carlsbad Calif.) on setting P3 for 7 minutes. The antibodies used are shown above in Table 1.
# [2] = tested on: SNU1079 cholangiocarcinoma cells (IDH1-R132C/WT), IDH2-WT background; test: H3K9me2 Western blot in SNU1079 expressing IDH2 WT; conditions: doxycycline-induced IDH2 WT, day 6
# Description: (§1) As disclosed in Example 4, compound 162 is specific for IDH1 mutations. As such, it is a useful compound to determine the contribution of IDH2 to H3K9me2 methylation levels. SNU1079 cholangiocarcinoma cells (KCLB) contain an IDH1 mutation (IDH1-R132C/WT). These cells were cultured in RPMI-1640 (Life Technologies, Carlsbad, Calif.) supplemented with 1% Sodium Pyruvate and 10% Tet-free fetal bovine serum (Hyclone, Logan Utah). Full length IDH2 cDNAs (WT or R172K) were cloned into pLKO-TREX-neomycin for lentiviral transduction (Wee et al., Proc. Nat. Acad. Sci. U.S.A. 2008 105(35):13057-13062). Lentiviral particles were produced by co-transfecting the cDNA expression vector of interest with packaging plasmids Δ8.9 and VSVG into 293T cells (ATCC CRL-11268) using Transit293® transfection reagent (Mirus, Madison, Wis.). Lentiviral supernatants were then used to spin-infect SNU1079 cells in the presence of 8 μg/mL polybrene. Cells recovered overnight in fresh medium and were then selected and continually cultured in appropriate antibiotics.
# (§2) SNU1079 stably expressing IDH2 isoforms were co-treated with doxycycline (100 ng/mL) final concentration to induce IDH2 (WT or R172K) expression. These lines were treated with DMSO or doses of compound 162. Cells were harvested on day 6 post-treatment and processed for histones as described above. […]
# [3] = tested on: SNU1079 cholangiocarcinoma cells (IDH1-R132C/WT), IDH2-R172K background; test: H3K9me2 Western blot in SNU1079 expressing IDH2-R172K; conditions: doxycycline-induced IDH2-R172K, day 6
# Description: as §1, §2
# [4] = tested on: IDH1-R132C mutant HT1080 sarcoma cells; test: H3K9me2 immunohistochemistry with quantitative image analysis; conditions: 5 μM, 6 days
# Description: In order to determine if changes in H3K9me2 level could be detected via immunohistochemistry, HT1080 cell lines were plated onto […] tissue culture flasks (Corning, Cat #3001, Tewksbury, Mass.). The cells were treated with DMSO or 5 μM compound 162 and incubated for 6 days, with media change at day 3. HT1080 cell pellets were harvested by removing media, washing with 1×PBS, and adding 10 ml of 10% neutral buffer formalin. Cells were then scraped from the bottom of the flask and placed in a 50 ml conical tube, filled to ˜50 ml with 10% neutral buffered formalin, and allowed to fix for 1-2 hours. […]
# FFPE slides were cut at 3.5 μm thickness, mounted on charged slides (Thermo-Scientific Colormark® Plus Cat #CM-5951, West Palm Beach, Fla.) and baked at 60° C. for 1 hour. […] The secondary antibody, Ventana OmniMap® HRP-conjugated anti-mouse (Ventana Cat #760-4310 Tucson, Ariz.), was incubated for 4 minutes and detected with Ventana's ChromoMap® DAB detection kit (Ventana Cat #760-159, Tucson, Ariz.). […]
# Coverslipped slides were scanned with Aperio ScanScope ® XT (Vista, Calif.) for quantitative digital image analysis. Digital images were analyzed with Visiopharm® (Hoersholm, Denmark) image analysis software. The nuclear detection algorithm detected both hematoxylin and DAB-stained nuclei in the image. […]
# HT1080 and SNU1079 cells = test: Histone profiling by LC-MS/MS, compound 162 vs. DMSO; conditions: 3 μM, 6 days
# Description: (§3) Also profiled were three endogenously mutant cell lines upon modulation of the target by chemical or genetic means in order to evaluate other lysine methylation marks. We used histone acid extracts (as described in Example 1) from HT1080 and SNU1079 cells treated with 3 μM compound 162 or DMSO control for 6 days, as well as SW1353 cells that have been induced (100 ng/mL doxycycline) with IDH2 specific shRNA (shIDH2-891 or shNTC) for 6 days. Histones were further enriched with ActiveMotif® Histone purification mini kit (ActiveMotif Inc., Carlsbad, Calif.)
# (§4) The purified histones were desalted by off line reversed phase chromatography on an 1200 Agilent tower (Agilent, Santa Clara, Calif.) using a Jupiter® 5 μm C4 300 Å Column 150×2 mm (Phenomenex, Torrance, Calif.). The resulting peak area was used to estimate concentration against the peak area of histones of known concentration. The desalted histones were lyophilyzed prior to lysine derivatization. […]
# (§5) The data obtained via mass spectrometry was interpreted using Mascot Distiller® (Matrix Science, Boston, Mass.) for identification followed by manual verification. The peak area obtained from the data acquired was processed using Skyline Software® (v1.4.0.422 University of Washington, Seattle, Wash.) for quantitation of the peptides bearing post translational modifications.
# [5] = tested on: SW1353 chondrosarcoma cells (IDH2-R172S/WT); test: H3K9me2 Western blot in IDH2 mutant SW1353 cells upon IDH2 knockdown; conditions: SW1353 stable lines, doxycycline 100 ng/mL, 6 days
# Description: SW1353 chondrosarcoma cells (ATCC HTB-94) contain an activating mutation in IDH2 (IDH2-R172S/WT). These cells were cultured in RPM-1640 (Life Technologies, Carlsbad, Calif.) supplemented with 1% sodium pyruvate and 10% Tet-Free fetal bovine serum. IDH2 shRNAs were cloned into pLKO-Tet-ON-puromycin vectors. All shRNAs were validated to give sufficient knockdown of target as judged by RNA, protein, and reduced 2-HG production.
# Lentiviral particles were produced by co-transfecting the shRNA plasmid of interest with packaging plasmids Δ8.9 and VSVG into 293T cells using Transit293® transfection reagent (Mirus, Madison, Wis.). Lentiviral supernatants were then used to spin-infect HT-1080 cells in the presence of 8 μg/mL polybrene. Cells recovered overnight in fresh medium and were then selected and continually cultured in appropriate antibiotics.
# SW1353 stable lines were cultured with and without doxycycline (100 ng/mL final concentration) for 6 days in the absence of selection. At day 6, cells were lifted using trypsin and histones were extracted as previously described.
# Histone extracts were prepared with NuPAGE® 4×LDS Sample Buffer (Life Technologies, Carlsbad, Calif.) and heated to 70° C. for 10 minutes. Samples were run on NuPage® Novex 4-12% Bis-Tris gel (Life Technologies, Carlsbad, Calif.) using MES buffer (Life Technologies, Carlsbad, Calif.). […]
# SW1353 cells = test: Histone profiling by LC-MS/MS, IDH2 shRNA vs. non-targeting control shRNA; conditions: doxycycline 100 ng/mL, 6 days, vs. shNTC
# Description: as §3, §4, §5
molecule,measurement,setting,value
"O=C(O)CCC(O)C(=O)O (stereo not drawn) [2-HG, 2-hydroxyglutarate]","H3K9me2 levels (Western blot, FIG. 1B)",HCT116 IDH1/2 WT cells,sufficient to increase H3K9me2 levels
"CC(C)[C@H]1COC(=O)N1c1ccnc(N[C@@H](C)c2ccc(Oc3ccccc3)cc2)n1 [compound 162, (S)-4-isopropyl-3-(2-(((S)-1-(4 phenoxyphenyl)ethyl)amino)pyrimidin-4-yl)oxazolidin-2-one]","H3K9me2 levels (Western blot, FIG. 4)",[1],does not affect H3K9me2 levels
same,"H3K9me2 level (Western blot, FIG. 5 left panel)",[2],able to reduce the H3K9me2 level in a dose-dependent manner
same,"H3K9me2 level (Western blot, FIG. 5 right panel)",[3],the reduction of H3K9me2 level is attenuated
same,H3K9me2 levels by immunohistochemistry (FIG. 6A),[4],decreases levels H3K9me2
same,"decrease in H3K9me2 levels, quantitative image analysis (FIG. 6B)","[4]; entire cross section, vs DMSO",27%
same,"H3K9me0 level, change from control (mass spectrometry, FIG. 7)",HT1080 and SNU1079 cells,H3K9me0 level increases
same,"H3K9me2 level, change from control (mass spectrometry, FIG. 7)",HT1080 and SNU1079 cells,H3K9me2 level reduction
"shIDH2-309: IDH2 specific shRNA, 5′ GTGGACATCCAGCTAAAGTAT 3′ (SEQ ID NO: 9)","H3K9me2 methylation level (Western blot, FIG. 3)",[5],H3K9me2 methylation level is reduced
"shIDH2-891: IDH2 specific shRNA, 5′ ATCTTTGACAAGCACTATAAG 3′ (SEQ ID NO: 10)","H3K9me2 methylation level (Western blot, FIG. 3)",[5],H3K9me2 methylation level is reduced
same,"H3K9me0 level, change from control (mass spectrometry, FIG. 7)",SW1353 cells,H3K9me0 level increases
same,"H3K9me2 level, change from control (mass spectrometry, FIG. 7)",SW1353 cells,H3K9me2 level reduction
